# From ChEMBL document CHEMBL4725439, “Direct Comparison of (N)-Methanocarba and Ribose-Containing 2-Arylalkynyladenosine Derivatives as A Receptor Agonists” (ACS Med Chem Lett, 2020)
# The source made the active and inactive calls. The calls are words filed in the database; no cut-off is given here.
# What was measured:
# Adenosine receptor A3 [1] = molecular target: T1, Adenosine receptor A3 (Homo sapiens, UniProt P0DMS8); test: Displacement of [125I]N6-(4-amino-3-iodobenzyl)adenosine-5'-N-methyluronamide from human […] expressed in CHO cell membranes assessed as inhibitor constant by radio ligand binding assay
# T1 sequence (P0DMS8 whole entry): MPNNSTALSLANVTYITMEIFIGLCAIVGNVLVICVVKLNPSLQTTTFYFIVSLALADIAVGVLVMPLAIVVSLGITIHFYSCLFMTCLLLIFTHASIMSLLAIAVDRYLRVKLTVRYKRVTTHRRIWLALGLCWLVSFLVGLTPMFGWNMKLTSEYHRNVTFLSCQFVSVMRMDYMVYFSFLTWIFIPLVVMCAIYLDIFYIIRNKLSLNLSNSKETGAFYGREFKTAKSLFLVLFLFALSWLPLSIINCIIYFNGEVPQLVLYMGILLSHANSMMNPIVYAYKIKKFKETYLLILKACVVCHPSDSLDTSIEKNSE
# Adenosine receptor A3 [2] = molecular target: T2, Adenosine receptor A3 (Mus musculus, UniProt Q61618); test: Displacement of [125I]AB-MECA from mouse […] expressed in HEK293 cell membranes assessed as inhibitor constant by radio ligand binding assay
# T2 sequence (Q61618 whole entry): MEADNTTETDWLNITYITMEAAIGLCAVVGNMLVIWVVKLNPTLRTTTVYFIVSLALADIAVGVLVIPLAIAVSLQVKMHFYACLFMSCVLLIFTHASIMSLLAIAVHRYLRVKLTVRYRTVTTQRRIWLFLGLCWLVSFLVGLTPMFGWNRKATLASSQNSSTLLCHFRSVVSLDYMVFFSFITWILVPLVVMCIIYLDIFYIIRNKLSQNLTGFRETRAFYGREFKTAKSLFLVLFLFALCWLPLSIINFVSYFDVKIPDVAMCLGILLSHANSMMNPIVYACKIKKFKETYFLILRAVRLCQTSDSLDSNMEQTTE
# Adenosine receptor A2a [3] = molecular target: T3, Adenosine receptor A2a (Homo sapiens, UniProt P29274); test: Displacement of [3H]2-[p-(2-carboxyethyl)phenyl-ethylamino]-5'-N-ethylcarboxamidoadenosine from human A2A receptor expressed in HEK293 cells at 10 uM by radio ligand binding assay relative to control; assay type: cell-based
# [4] = molecular target: T4, Adenosine receptor A1 (Homo sapiens) (UniProt P30542); test: Displacement of [3H]N6-R-phenylisopropyladenosine from human A1AR expressed in HEK293 cells at 10 uM by radio ligand binding assay relative to control; assay type: cell-based
# T4 sequence (whole entry): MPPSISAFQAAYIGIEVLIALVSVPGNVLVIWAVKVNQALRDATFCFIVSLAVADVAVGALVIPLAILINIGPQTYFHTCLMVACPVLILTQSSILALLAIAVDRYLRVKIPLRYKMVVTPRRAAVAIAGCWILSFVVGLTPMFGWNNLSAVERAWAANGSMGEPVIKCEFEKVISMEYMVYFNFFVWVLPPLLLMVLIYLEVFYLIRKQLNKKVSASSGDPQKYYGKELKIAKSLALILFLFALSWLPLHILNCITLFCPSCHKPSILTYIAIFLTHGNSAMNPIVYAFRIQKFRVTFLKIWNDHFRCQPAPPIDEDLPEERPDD
# [5] = molecular target: Sodium-dependent dopamine transporter (Homo sapiens, UniProt Q01959); test: Displacement of [3H]-Win35428 from human recombinant DAT receptor expressed in stable HEK cells after 90 mins by microbeta scintillation counting method; assay type: cell-based
# [6] = molecular target: 5-hydroxytryptamine receptor 2B (Homo sapiens, UniProt P41595); test: Displacement of [3H]-LSD from recombinant human 5HT2B receptor expressed in stable HEK cells after 90 mins by microbeta scintillation counting method; assay type: cell-based
# [7] = molecular target: Adenosine receptor A2a (Mus musculus) (UniProt Q60613); test: Displacement of [3H]CGS21680 from mouse A2A receptor expressed in HEK293 cells at 10 uM by radio ligand binding assay relative to control; assay type: cell-based
# [8] = molecular target: T5, Adenosine receptor A1 (Mus musculus) (UniProt Q60612); test: Displacement of [125I]AB-MECA from recombinant mouse A1AR expressed in HEK293 cells at 10 uM by radio ligand binding assay relative to control; assay type: cell-based; conditions: filed as agonist
# T5 sequence (whole entry): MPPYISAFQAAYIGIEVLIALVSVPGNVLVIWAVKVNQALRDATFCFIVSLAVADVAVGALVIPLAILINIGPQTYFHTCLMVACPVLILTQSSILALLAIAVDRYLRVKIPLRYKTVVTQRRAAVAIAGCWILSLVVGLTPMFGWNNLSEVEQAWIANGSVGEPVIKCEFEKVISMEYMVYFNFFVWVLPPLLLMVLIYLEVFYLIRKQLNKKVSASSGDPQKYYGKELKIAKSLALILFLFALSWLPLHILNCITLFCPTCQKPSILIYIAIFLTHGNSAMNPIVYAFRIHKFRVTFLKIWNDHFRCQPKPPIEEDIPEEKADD
# [9] = molecular target: Beta-3 adrenergic receptor (Homo sapiens) (UniProt P13945); test: Displacement of [125I]-Pindolol from human beta3 adrenergic receptor expressed in expressed in HEK Flp-In cells measured after 90 mins by microbeta scintillation counting method; assay type: cell-based
# Adenosine receptor A1 [10] = molecular target: T6, Adenosine receptor A1 (Homo sapiens, UniProt P30542); test: Displacement of [3H]N6-R-phenylisopropyladenosine from human A1AR receptor expressed in HEK293 cells assessed as inhibitory constant by radio ligand binding assay; assay type: cell-based
# T6 sequence (P30542 whole entry): T4 sequence (whole entry)
# Adenosine receptor A1 [11] = molecular target: T7, Adenosine receptor A1 (Mus musculus, UniProt Q60612); test: Displacement of [125I]AB-MECA from recombinant mouse A1AR expressed in HEK293 cells assessed as inhibitory constant by radio ligand binding assay; assay type: cell-based
# T7 sequence (Q60612 whole entry): T5 sequence (whole entry)
# [12] = molecular target: T8, Adenosine receptor A2b (Homo sapiens) (UniProt P29275); test: Agonist activity at Gs-coupled human A2B […] receptor expressed in CHO at 10 uM by cAMP based assay; assay type: functional, cell-based
# T8 sequence (whole entry): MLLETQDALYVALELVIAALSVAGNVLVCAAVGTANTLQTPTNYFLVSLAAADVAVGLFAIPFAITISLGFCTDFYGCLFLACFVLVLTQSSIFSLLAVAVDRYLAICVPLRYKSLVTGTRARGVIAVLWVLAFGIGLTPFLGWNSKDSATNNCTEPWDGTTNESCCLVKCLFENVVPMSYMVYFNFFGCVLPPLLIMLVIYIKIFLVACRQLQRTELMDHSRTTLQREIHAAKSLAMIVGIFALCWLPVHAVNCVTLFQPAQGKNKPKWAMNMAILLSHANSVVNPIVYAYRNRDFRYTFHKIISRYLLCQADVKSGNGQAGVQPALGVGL
# [13] = Oral bioavailability in Sprague-Dawley rat; assay type: ADME, organism-based; conditions: in vivo
# HepG2 = test: Cytotoxicity against human HepG2 cells; assay type: cell-based
# [14] = Stability in Sprague-Dawley rat liver microsomes; assay type: ADME, Microsome
# [15] = Stability in Sprague-Dawley rat plasma; assay type: ADME, cell-free
# Adenosine receptor A3 [16] = molecular target: T1, Adenosine receptor A3; test: Binding affinity to human A3AR assessed as inhibitor constant
# Adenosine receptor A2a [17] = molecular target: T3, Adenosine receptor A2a; test: Displacement of [3H]2-[p-(2-carboxyethyl)phenyl-ethylamino]-5'-N-ethylcarboxamidoadenosine from human A2A receptor expressed in HEK293 cells assessed as inhibitor constant by radio ligand binding assay; assay type: cell-based
# Chain of Beta-3 adrenergic receptor (Homo sapiens) (P13945 whole entry, looked up): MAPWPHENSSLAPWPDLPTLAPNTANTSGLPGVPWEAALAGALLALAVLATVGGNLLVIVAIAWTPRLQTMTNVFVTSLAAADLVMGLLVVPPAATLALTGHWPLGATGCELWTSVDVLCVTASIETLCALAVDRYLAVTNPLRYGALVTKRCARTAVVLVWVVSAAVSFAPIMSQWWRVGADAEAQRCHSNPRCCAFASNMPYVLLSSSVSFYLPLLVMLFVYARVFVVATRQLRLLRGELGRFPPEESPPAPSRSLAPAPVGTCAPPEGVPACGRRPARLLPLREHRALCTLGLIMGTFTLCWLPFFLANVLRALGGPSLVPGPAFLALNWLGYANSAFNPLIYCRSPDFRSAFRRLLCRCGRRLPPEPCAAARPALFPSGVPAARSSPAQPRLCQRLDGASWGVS
# T3 sequence (P29274 whole entry): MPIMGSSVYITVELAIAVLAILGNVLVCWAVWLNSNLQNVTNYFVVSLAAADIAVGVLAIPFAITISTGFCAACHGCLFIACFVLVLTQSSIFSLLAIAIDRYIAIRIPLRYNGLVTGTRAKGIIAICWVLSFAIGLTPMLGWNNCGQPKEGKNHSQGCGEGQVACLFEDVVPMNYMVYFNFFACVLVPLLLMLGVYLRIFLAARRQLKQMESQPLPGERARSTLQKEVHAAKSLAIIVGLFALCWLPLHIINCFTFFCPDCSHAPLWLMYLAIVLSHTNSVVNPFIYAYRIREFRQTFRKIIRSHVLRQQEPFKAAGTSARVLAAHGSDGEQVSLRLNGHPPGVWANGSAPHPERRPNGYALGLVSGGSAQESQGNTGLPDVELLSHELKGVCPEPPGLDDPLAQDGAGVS
# Chain of Adenosine receptor A2a (Mus musculus) (Q60613 whole entry): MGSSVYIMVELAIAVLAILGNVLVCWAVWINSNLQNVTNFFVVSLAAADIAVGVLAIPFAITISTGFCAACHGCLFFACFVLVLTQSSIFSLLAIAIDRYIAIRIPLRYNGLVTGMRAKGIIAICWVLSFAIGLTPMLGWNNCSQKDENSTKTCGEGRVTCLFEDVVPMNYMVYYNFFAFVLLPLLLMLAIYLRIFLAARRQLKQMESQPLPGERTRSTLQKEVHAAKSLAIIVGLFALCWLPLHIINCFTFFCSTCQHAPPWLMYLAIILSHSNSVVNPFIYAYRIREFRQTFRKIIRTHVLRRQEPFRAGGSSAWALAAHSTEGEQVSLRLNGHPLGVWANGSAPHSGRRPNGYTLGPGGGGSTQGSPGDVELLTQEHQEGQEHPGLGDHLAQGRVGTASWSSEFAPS
# Chain of 5-hydroxytryptamine receptor 2B (P41595 whole entry): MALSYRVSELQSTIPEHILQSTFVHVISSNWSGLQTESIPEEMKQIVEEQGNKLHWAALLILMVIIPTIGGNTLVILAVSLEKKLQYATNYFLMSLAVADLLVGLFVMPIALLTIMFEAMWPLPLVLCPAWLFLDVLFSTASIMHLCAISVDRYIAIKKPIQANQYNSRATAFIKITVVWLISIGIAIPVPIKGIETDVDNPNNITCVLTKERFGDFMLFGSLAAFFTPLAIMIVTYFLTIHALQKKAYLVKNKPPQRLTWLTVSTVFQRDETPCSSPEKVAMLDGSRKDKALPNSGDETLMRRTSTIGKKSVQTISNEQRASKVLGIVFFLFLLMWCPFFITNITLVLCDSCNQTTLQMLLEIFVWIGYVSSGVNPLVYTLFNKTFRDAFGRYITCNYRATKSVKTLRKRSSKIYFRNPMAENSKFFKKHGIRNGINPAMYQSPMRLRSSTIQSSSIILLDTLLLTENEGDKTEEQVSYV
# Chain of Sodium-dependent dopamine transporter (Q01959 whole entry): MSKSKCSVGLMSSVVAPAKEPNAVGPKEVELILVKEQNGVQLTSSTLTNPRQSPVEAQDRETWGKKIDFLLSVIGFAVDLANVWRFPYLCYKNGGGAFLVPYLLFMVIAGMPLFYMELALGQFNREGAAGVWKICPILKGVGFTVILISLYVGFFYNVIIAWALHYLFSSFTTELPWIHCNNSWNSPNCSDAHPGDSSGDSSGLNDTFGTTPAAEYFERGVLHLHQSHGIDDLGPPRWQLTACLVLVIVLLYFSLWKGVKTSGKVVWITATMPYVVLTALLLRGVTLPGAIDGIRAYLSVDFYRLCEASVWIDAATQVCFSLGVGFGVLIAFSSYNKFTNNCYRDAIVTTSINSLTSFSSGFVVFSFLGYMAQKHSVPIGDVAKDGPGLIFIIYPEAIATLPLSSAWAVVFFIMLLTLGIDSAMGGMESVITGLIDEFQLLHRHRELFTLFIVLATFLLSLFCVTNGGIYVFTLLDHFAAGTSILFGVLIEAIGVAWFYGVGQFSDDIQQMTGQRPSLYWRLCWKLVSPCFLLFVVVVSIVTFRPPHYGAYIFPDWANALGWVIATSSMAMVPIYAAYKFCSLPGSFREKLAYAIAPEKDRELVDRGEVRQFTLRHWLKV
smiles,measurement,setting,value
CNC(=O)[C@H]1O[C@@H](n2cnc3c(NC)cc(C#Cc4ccc(F)s4)nc32)[C@H](O)[C@@H]1O,Ki,Adenosine receptor A3 [1],26.6 nM
same,Ki,Adenosine receptor A3 [2],1200 nM
same,inhibition,Adenosine receptor A2a [3],15%
same,inhibition,[4]; filed as agonist,47%
CCCNc1cc(C#Cc2ccc(Cl)s2)nc2c1ncn2[C@H]1[C@H](O)[C@H](O)[C@]2(C(=O)NC)C[C@H]12,Ki,[5],3940 nM
same,Ki,[6],760 nM
CNC(=O)[C@@]12C[C@@H]1[C@@H](n1cnc3c(NC)cc(C#Cc4ccc(F)s4)nc31)[C@H](O)[C@@H]2O,inhibition,[7],6%
same,inhibition,[8],51%
same,Ki,Adenosine receptor A3 [1],0.896 nM
same,Ki,Adenosine receptor A3 [2],37 nM
same,Activity,[9],Active
same,inhibition,Adenosine receptor A2a [3]; filed as agonist,56%
same,inhibition,[4],20%
CNc1nc(C#Cc2ccc(Cl)s2)nc2c1ncn2[C@H]1[C@H](O)[C@H](O)[C@]2(C(=O)OC)C[C@H]12,inhibition,Adenosine receptor A2a [3],20%
same,inhibition,[4],24%
CCCNc1nc(C#Cc2ccc(Cl)s2)nc2c1ncn2[C@@H]1O[C@H](C(=O)NC)[C@@H](O)[C@H]1O,Ki,Adenosine receptor A1 [10],1160 nM
same,Ki,Adenosine receptor A1 [11],315 nM
same,inhibition,Adenosine receptor A2a [3]; filed as agonist,49%
CNC(=O)[C@@]12C[C@@H]1[C@@H](n1cnc3c(NC)cc(C#Cc4ccc(Cl)s4)nc31)[C@H](O)[C@@H]2O,Activity,[9],Active
CNC(=O)[C@@]12C[C@@H]1[C@@H](n1cnc3c(NC)nc(C#Cc4ccc(Cl)s4)nc31)[C@H](O)[C@@H]2O,Activity,[12],inactive
same,bioavailability,[13],14%
same,Activity,HepG2,Non-Toxic
same,Stabilty,[14],Stable
same,Stabilty,[15],Stable
CCOC(=O)[C@@]12C[C@@H]1[C@@H](n1cnc3c(NC)cc(C#Cc4ccc(Cl)s4)nc31)[C@H](O)[C@@H]2O,inhibition,[7],5%
same,inhibition,[8],54%
same,inhibition,Adenosine receptor A2a [3],18%
same,inhibition,[4],17%
CCNc1nc(C#Cc2ccc(Cl)s2)nc2c1ncn2[C@H]1[C@H](O)[C@H](O)[C@]2(C(=O)NC)C[C@H]12,bioavailability,[13],14%
same,Activity,HepG2,Non-Toxic
same,Stabilty,[14],Stable
same,Stabilty,[15],Stable
CCOC(=O)[C@@]12C[C@@H]1[C@@H](n1cnc3c(NC)nc(C#Cc4ccc(F)s4)nc31)[C@H](O)[C@@H]2O,Ki,Adenosine receptor A3 [1],10.4 nM
same,Ki,Adenosine receptor A1 [10],1670 nM
same,Ki,Adenosine receptor A1 [11],864 nM
same,Ki,Adenosine receptor A3 [2],625 nM
same,inhibition,Adenosine receptor A2a [3],27%
CNc1nc(C#Cc2ccc(Cl)s2)nc2c1ncn2[C@@H]1O[C@H](C(=O)OC)[C@@H](O)[C@H]1O,inhibition,[7],12%
same,inhibition,[8],53%
same,inhibition,Adenosine receptor A2a [3],8%
same,inhibition,[4]; filed as agonist,46%
CCCNc1nc(C#Cc2ccc(Cl)s2)nc2c1ncn2[C@H]1[C@H](O)[C@H](O)[C@]2(C(=O)NC)C[C@H]12,Activity,[9],Active
CCNc1cc(C#Cc2ccc(Cl)s2)nc2c1ncn2[C@H]1[C@H](O)[C@H](O)[C@]2(C(=O)NC)C[C@H]12,bioavailability,[13],14%
same,Activity,HepG2,Non-Toxic
same,Stabilty,[14],Stable
same,Stabilty,[15],Stable
same,Activity,[9],Active
CNC(=O)[C@H]1O[C@@H](n2cnc3c(NC)nc(C#Cc4ccc(Cl)s4)nc32)[C@H](O)[C@@H]1O,Ki,Adenosine receptor A1 [11],4170 nM
same,inhibition,Adenosine receptor A2a [3],7%
same,inhibition,[4]; filed as agonist,58%
CCNC(=O)[C@H]1O[C@@H](n2cnc3c(NC)nc(C#C[C@@H](O)c4ccccc4)nc32)[C@H](O)[C@@H]1O,Ki,Adenosine receptor A3 [16],0.75 nM
CCCNc1nc(C#Cc2ccc(F)s2)nc2c1ncn2[C@H]1[C@H](O)[C@H](O)[C@]2(C(=O)NC)C[C@H]12,bioavailability,[13],14%
same,Activity,HepG2,Non-Toxic
same,Stabilty,[14],Stable
same,Ki,Adenosine receptor A3 [1],1.13 nM
same,Ki,Adenosine receptor A1 [10],3980 nM
same,Stabilty,[15],Stable
same,Ki,Adenosine receptor A2a [17],838 nM
same,Ki,Adenosine receptor A3 [2],10.6 nM
CNC(=O)[C@H]1O[C@@H](n2cnc3c(NC)nc(C#Cc4ccc(F)s4)nc32)[C@H](O)[C@@H]1O,Ki,Adenosine receptor A3 [1],2.3 nM
same,Ki,Adenosine receptor A1 [10],432 nM
same,Ki,Adenosine receptor A3 [2],1510 nM
same,inhibition,Adenosine receptor A2a [3]; filed as agonist,45%
CCCNc1nc(C#Cc2ccc(F)s2)nc2c1ncn2[C@@H]1O[C@H](C(=O)NC)[C@@H](O)[C@H]1O,Ki,Adenosine receptor A3 [1],8.51 nM
same,Ki,Adenosine receptor A1 [10],369 nM
same,Ki,Adenosine receptor A2a [17],2460 nM
same,Ki,Adenosine receptor A3 [2],435 nM
CCNc1cc(C#Cc2ccc(F)s2)nc2c1ncn2[C@H]1[C@H](O)[C@H](O)[C@]2(C(=O)NC)C[C@H]12,inhibition,[7],4%
same,inhibition,[8],53%
same,Ki,Adenosine receptor A3 [1],2.78 nM
same,Ki,Adenosine receptor A3 [2],25 nM
same,Activity,[9],Active
same,inhibition,Adenosine receptor A2a [3]; filed as agonist,61%
same,inhibition,[4],31%
CNC(=O)[C@@]12C[C@@H]1[C@@H](n1cnc3c(NC)nc(C#Cc4ccc(F)s4)nc31)[C@H](O)[C@@H]2O,inhibition,[7],5%
same,bioavailability,[13],14%
same,Activity,HepG2,Non-Toxic
same,Stabilty,[14],Stable
same,Ki,Adenosine receptor A3 [1],0.28 nM
same,Stabilty,[15],Stable
same,Ki,Adenosine receptor A1 [11],3260 nM
same,Ki,Adenosine receptor A2a [17],4620 nM
same,Ki,Adenosine receptor A3 [2],85 nM
same,inhibition,[4],33%
